Results published in patent US10820597B2, “Phytosanitary composition comprising essential oils that potentiate antifungal activity” (BIOFUNGITEK, S. L., priority 2011, dated 2020).
Values joined by “and” are separate entries in the source; they are usually repeats but may differ in a detail not shown here. Identical values can stand only once. Like-named read-outs stand apart in the source and are kept apart here.

How the values were obtained:
[1] = tested on: Botrytis cinerea; test: Growth of B. cinerea in PDB liquid culture, optical density after 24 h; format: cell-based
[2] = tested on: Alternaria alternata; test: Growth of A. alternata in liquid culture, optical density after 24 h; format: cell-based
[3] = tested on: Penicillium digitatum; test: Growth of P. digitatum in liquid culture, optical density after 24 h; format: cell-based
[4] = tested on: Cercospora beticola; test: Growth of C. beticola on PDA, colony diameter; format: cell-based
Method: Cercospora beticola was cultured on PDA (potato dextrose agar) culture medium buffered to a pH value not exceeding 9.5. […] The % inhibition was calculated with the following formula:
[formula] wherein “colony diameter (control)” is the size of the control colony (without the compounds to be tested) and “colony diameter (x)” is the size of the colony with the substance(s) to be tested. A fixed K2CO3 concentration of 7.24 mM was tested in C. beticola.
The fungus C. beticola was cultured in a similar way to Example 16 with 10 ppm of carvacrol.
The fungus C. beticola was cultured in a similar way to Example 16 with a fixed concentration of K2CO3 (7.24 mM) and carvacrol (10 ppm).

[5] = tested on: Botrytis cinerea; test: Treated tomato leaves infected with B. cinerea, % infection after two weeks; format: in vivo
[6] = tested on: Alternaria alternata; test: Treated tomato leaves infected with A. alternata, % infection; format: in vivo
[7] = tested on: Phytophthora infestans; format: in vivo; details: tomato plants
[8] = tested on: Leveillula taurica; format: in vivo
[9] = tested on: Penicillium digitatum; details: green mold on oranges; cited from earlier work
[10] = carvacrol 308 ppm, listed as carvacrol
[11] = K2CO3 concentration between 3.5 and 5 mM
[12] = thymol 350 ppm, listed as thymol

Structure (SMILES): Cc1ccc(C(C)C)cc1O [Carvacrol, carvacrol]
- inhibition at 0.1 ppm ([1]; Botrytis cinerea, 24 h, read-out: Inhibition ± SD (%), carvacrol 0.1 ppm, 24 h OD): 0%
- inhibition at 0.31 ppm ([1]; Botrytis cinerea, 24 h, read-out: Inhibition ± SD (%), carvacrol 0.31 ppm, 24 h OD): 10.5 ± 7.7%
- inhibition at 1 ppm ([1]; Botrytis cinerea, 24 h, read-out: Inhibition ± SD (%), carvacrol 1 ppm, 24 h OD): 13.7 ± 4.1%
- inhibition at 3.1 ppm ([1]; Botrytis cinerea, 24 h, read-out: Inhibition ± SD (%), carvacrol 3.1 ppm, 24 h OD): 22.4 ± 3.4%
- inhibition at 10 ppm ([1]; Botrytis cinerea, 24 h, read-out: Inhibition ± SD (%), carvacrol 10 ppm, 24 h OD): 21%
- inhibition at 31 ppm ([1]; Botrytis cinerea, 24 h, read-out: Inhibition ± SD (%), carvacrol 31 ppm, 24 h OD): 51.4 ± 5.5%
- inhibition at 100 ppm ([1]; Botrytis cinerea, 24 h, read-out: Inhibition ± SD (%), carvacrol 100 ppm, 24 h OD): 74.4 ± 1.1%
- Inhibition ± SD (%) ([1]; carvacrol 10 ppm, 24 h OD): 21.3 ± 5.0%
- inhibition at 0.1 ppm ([2]; Alternaria alternata, read-out: Inhibition ± SD (%), carvacrol 0.1 ppm): 0%
- inhibition at 0.31 ppm ([2]; Alternaria alternata, read-out: Inhibition ± SD (%), carvacrol 0.31 ppm): 2 ± 0.3%
- inhibition at 1 ppm ([2]; Alternaria alternata, read-out: Inhibition ± SD (%), carvacrol 1 ppm): 3.5 ± 0.8%
- inhibition at 3.1 ppm ([2]; Alternaria alternata, read-out: Inhibition ± SD (%), carvacrol 3.1 ppm): 5.8 ± 1.4%
- inhibition at 10 ppm ([2]; Alternaria alternata, read-out: Inhibition ± SD (%), carvacrol 10 ppm): 17.7 ± 11%
- inhibition at 31 ppm ([2]; Alternaria alternata, read-out: Inhibition ± SD (%), carvacrol 31 ppm): 27%
- inhibition at 100 ppm ([2]; Alternaria alternata, read-out: Inhibition ± SD (%), carvacrol 100 ppm): 74.6 ± 8%
- Inhibition ± SD (%) ([2]; carvacrol 31 ppm): 27.2 ± 14.0%
- inhibition at 0.1 ppm ([3]; Penicillium digitatum, 24 h, read-out: Inhibition ± SD (%), carvacrol 0.1 ppm, 24 h OD): 32.3 ± 2.8%
- inhibition at 0.31 ppm ([3]; Penicillium digitatum, 24 h, read-out: Inhibition ± SD (%), carvacrol 0.31 ppm, 24 h OD): 34.3 ± 2.8%
- inhibition at 1 ppm ([3]; Penicillium digitatum, 24 h, read-out: Inhibition ± SD (%), carvacrol 1 ppm, 24 h OD): 37.9 ± 3%
- inhibition at 3.1 ppm ([3]; Penicillium digitatum, 24 h, read-out: Inhibition ± SD (%), carvacrol 3.1 ppm, 24 h OD): 52.6 ± 2.2%
- inhibition at 10 ppm ([3]; Penicillium digitatum, 24 h, read-out: Inhibition ± SD (%), carvacrol 10 ppm, 24 h OD): 58%
- inhibition at 31 ppm ([3]; Penicillium digitatum, 24 h, read-out: Inhibition ± SD (%), carvacrol 31 ppm, 24 h OD): 86 ± 1.1%
- inhibition at 100 ppm ([3]; Penicillium digitatum, 24 h, read-out: Inhibition ± SD (%), carvacrol 100 ppm, 24 h OD): 100%
- Inhibition ± SD (%) ([3]; carvacrol 10 ppm, 24 h OD): 57.8 ± 2.1%
- inhibition at 10 ppm ([4]; Cercospora beticola, carvacrol 10 ppm, read-out: Inhibition ± SD (%)): 17%
- Inhibition ± SD (%) ([5]; carvacrol 26 ppm): 7.2%
- Inhibition ± SD (%) ([5]; carvacrol 31 ppm): 7.4%
- Inhibition ± SD (%) ([5]; carvacrol 100 ppm): 16.7%
- Inhibition ± SD (%) ([5]; carvacrol 200 ppm): 18.6%
- Inhibition ± SD (%) ([5]; carvacrol 308 ppm): 20.8%
- Inhibition ± SD (%) [5, 10]: 21%
- Inhibition ± SD (%) ([6]; carvacrol 26 ppm): 4.3%
- Inhibition ± SD (%) ([6]; carvacrol 31 ppm): 5.8%
- Inhibition ± SD (%) ([6]; carvacrol 100 ppm): 11.4%
- Inhibition ± SD (%) ([6]; carvacrol 200 ppm): 16.1%
- Inhibition ± SD (%) ([6]; carvacrol 308 ppm): 18% and 18.4%
- Inhibition ± SD (%) ([7]; carvacrol 26 ppm): 3.2 ± 0.8%
- Inhibition ± SD (%) ([7]; carvacrol 150 ppm): 17.1 ± 2.3%
- Inhibition ± SD (%) ([7]; carvacrol 308 ppm): 35.0 ± 4.8%
- Inhibition ± SD (%) [7, 10]: 35%

Structure (SMILES): O=C([O-])[O-].[K+].[K+] [K2CO3, potassium carbonate]
- Inhibition ± SD (%) ([1]; K2CO3 3.5 mM, 24 h OD): 48% and 48.2%
- Inhibition ± SD (%) ([1]; K2CO3 4.25 mM, 24 h OD): 53.3%
- Inhibition ± SD (%) ([1]; K2CO3 4.5 mM, 24 h OD): 67.2%
- Inhibition ± SD (%) ([1]; K2CO3 5 mM, 24 h OD): 71.0%
- inhibition of the culture [1, 11]: inhibition of the B. cinerea culture was observed
- Inhibition ± SD (%) ([2]; K2CO3 3.5 mM, 24 h OD): 32% and 31.5%
- Inhibition ± SD (%) ([2]; K2CO3 4.25 mM, 24 h OD): 39.7%
- Inhibition ± SD (%) ([2]; K2CO3 4.5 mM, 24 h OD): 48.0%
- Inhibition ± SD (%) ([2]; K2CO3 5 mM, 24 h OD): 59.0%
- inhibition of the culture [2, 11]: inhibition of the A. alternata culture was observed
- Inhibition ± SD (%) ([3]; K2CO3 3.5 mM, 24 h OD): 29% and 29.1%
- Inhibition ± SD (%) ([3]; K2CO3 4.25 mM, 24 h OD): 33.0%
- Inhibition ± SD (%) ([3]; K2CO3 4.5 mM, 24 h OD): 36.9%
- Inhibition ± SD (%) ([3]; K2CO3 5 mM, 24 h OD): 39.5%
- inhibition of the culture [3, 11]: inhibition of the P. digitatum culture was observed
- Inhibition ± SD (%) ([4]; K2CO3 7.24 mM): 25%
- Inhibition ± SD (%) ([5]; K2CO3 12 mM): 14% and 13.4%
- Inhibition ± SD (%) ([5]; K2CO3 13 mM): 14% and 13.5%
- Inhibition ± SD (%) ([5]; K2CO3 14 mM): 13.8%
- Inhibition ± SD (%) ([5]; K2CO3 15 mM): 13.8%
- Inhibition ± SD (%) ([5]; K2CO3 22 mM): 15.3%
- Inhibition ± SD (%) ([6]; K2CO3 12 mM): 6.5%
- Inhibition ± SD (%) ([6]; K2CO3 13 mM): 7%
- Inhibition ± SD (%) ([6]; K2CO3 14 mM): 7.2%
- Inhibition ± SD (%) ([6]; K2CO3 15 mM): 7.8%
- Inhibition ± SD (%) ([6]; K2CO3 22 mM): 8.6%
- Inhibition ± SD (%) ([7]; K2CO3 15 mM): 19% and 18.5 ± 3.6%
- Inhibition ± SD (%) ([8]; K2CO3 15 mM, tomato plants): 14%
- Inhibition ± SD (%) ([8]; in vivo): 14% and 13.9 ± 0.5%
- fungicide treatment efficacy [9]: effective as fungicide treatment

Structure (SMILES): Cc1ccc(C(C)C)c(O)c1 [Thymol, thymol]
- inhibition at 0.31 ppm ([1]; Botrytis cinerea, 24 h, thymol 0.31 ppm, 24 h OD, read-out: Inhibition ± SD (%)): 0%
- inhibition at 1 ppm ([1]; Botrytis cinerea, 24 h, thymol 1 ppm, 24 h OD, read-out: Inhibition ± SD (%)): 2.1 ± 2.9%
- inhibition at 3.1 ppm ([1]; Botrytis cinerea, 24 h, thymol 3.1 ppm, 24 h OD, read-out: Inhibition ± SD (%)): 10.7 ± 2.3%
- inhibition at 10 ppm ([1]; Botrytis cinerea, 24 h, thymol 10 ppm, 24 h OD, read-out: Inhibition ± SD (%)): 13%
- inhibition at 31 ppm ([1]; Botrytis cinerea, 24 h, thymol 31 ppm, 24 h OD, read-out: Inhibition ± SD (%)): 32 ± 1.7%
- inhibition at 100 ppm ([1]; Botrytis cinerea, 24 h, thymol 100 ppm, 24 h OD, read-out: Inhibition ± SD (%)): 88.2 ± 0.6%
- Inhibition ± SD (%) ([1]; thymol 10 ppm, 24 h OD): 12.6 ± 2.4%
- inhibition at 0.31 ppm ([2]; Alternaria alternata, thymol 0.31 ppm, 24 h OD, read-out: Inhibition ± SD (%)): 0%
- inhibition at 1 ppm ([2]; Alternaria alternata, thymol 1 ppm, 24 h OD, read-out: Inhibition ± SD (%)): 4.1 ± 2.9%
- inhibition at 3.1 ppm ([2]; Alternaria alternata, thymol 3.1 ppm, 24 h OD, read-out: Inhibition ± SD (%)): 10.4 ± 2.6%
- inhibition at 10 ppm ([2]; Alternaria alternata, thymol 10 ppm, 24 h OD, read-out: Inhibition ± SD (%)): 16 ± 2%
- inhibition at 31 ppm ([2]; Alternaria alternata, thymol 31 ppm, 24 h OD, read-out: Inhibition ± SD (%)): 29%
- inhibition at 100 ppm ([2]; Alternaria alternata, thymol 100 ppm, 24 h OD, read-out: Inhibition ± SD (%)): 69.4%
- inhibition at 0.31 ppm ([3]; Penicillium digitatum, 24 h, thymol 0.31 ppm, 24 h OD, read-out: Inhibition ± SD (%)): 28.2 ± 3.9%
- inhibition at 1 ppm ([3]; Penicillium digitatum, 24 h, thymol 1 ppm, 24 h OD, read-out: Inhibition ± SD (%)): 24.2 ± 6%
- inhibition at 3.1 ppm ([3]; Penicillium digitatum, 24 h, thymol 3.1 ppm, 24 h OD, read-out: Inhibition ± SD (%)): 36.3 ± 2.3%
- inhibition at 10 ppm ([3]; Penicillium digitatum, 24 h, thymol 10 ppm, 24 h OD, read-out: Inhibition ± SD (%)): 36.2 ± 2%
- inhibition at 31 ppm ([3]; Penicillium digitatum, 24 h, thymol 31 ppm, 24 h OD, read-out: Inhibition ± SD (%)): 51%
- inhibition at 100 ppm ([3]; Penicillium digitatum, 24 h, thymol 100 ppm (first column headed 100), 24 h OD, read-out: Inhibition ± SD (%)): 78.3 ± 2.2%
- inhibition at 100 ppm ([3]; Penicillium digitatum, 24 h, thymol 100 ppm (second column headed 100), 24 h OD, read-out: Inhibition ± SD (%)): 95.6 ± 0.5%
- Inhibition ± SD (%) ([3]; thymol 31 ppm, 24 h OD): 50.7 ± 2.0%
- Inhibition ± SD (%) ([5]; thymol 35 ppm): 7.4%
- Inhibition ± SD (%) ([5]; thymol 100 ppm): 17.7%
- Inhibition ± SD (%) ([5]; thymol 200 ppm): 20.9%
- Inhibition ± SD (%) ([5]; thymol 350 ppm): 22.8%
- Inhibition ± SD (%) [5, 12]: 23%
- Inhibition ± SD (%) ([6]; thymol 35 ppm): 10.0%
- Inhibition ± SD (%) ([6]; thymol 100 ppm): 15.2%
- Inhibition ± SD (%) ([6]; thymol 200 ppm): 19.3%
- Inhibition ± SD (%) ([6]; thymol 350 ppm): 21.3%
- Inhibition ± SD (%) [6, 12]: 21%
- Inhibition ± SD (%) ([7]; thymol 35 ppm): 4.3 ± 0.7%
- Inhibition ± SD (%) ([7]; thymol 150 ppm): 16.2 ± 3.2%
- Inhibition ± SD (%) ([7]; thymol 350 ppm): 33.6 ± 5.6%
- Inhibition ± SD (%) [7, 12]: 34%
